Molecular target: T1, GAL4-RORγ (GAL4 DBD fused to the ROR gamma ligand-binding domain) (Homo sapiens, UniProt P51449)
T1 construct: expressed in transfected cells; host or cells: HG5LN (HeLa line with GAL4-responsive luciferase reporter)
T1 sequence (P51449 269-508 limits assumed): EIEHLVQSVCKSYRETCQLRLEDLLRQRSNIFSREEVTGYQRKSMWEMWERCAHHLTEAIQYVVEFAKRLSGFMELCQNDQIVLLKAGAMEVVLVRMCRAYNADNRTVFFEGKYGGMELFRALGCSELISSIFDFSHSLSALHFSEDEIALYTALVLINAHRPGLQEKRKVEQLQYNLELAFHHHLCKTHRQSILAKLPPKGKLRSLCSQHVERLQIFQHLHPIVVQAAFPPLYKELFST
Experiment: GAL4-RORγ transactivation (luciferase reporter, HG5LN HeLa line)
Format: cell-based
Details: HG5LN HeLa cells, 18 hours incubation, luciferase luminescence, read-out: IC50 hRORg
Source text: (§1) In the tables described above, the median inhibitory concentrations IC50 for the compounds belonging to formula (I) according to the invention have been given according to the following models:
GAL4-RORγ Transactivation
The RORγ transactivation model was developed from the line HG5LN, which is a HeLa line that stably expresses a luciferase reporter gene controlled by a pentamer of the GAL4 recognition domain of yeast and of a β-globin promoter. The HG5LN line was stably transfected by the DNA-binding domain (DBD) of GAL4 fused to the ROR gamma ligand-binding domain (LBD). Molecules that inhibit the ROR gamma constitutive activity reduce the luciferase expression, thus leading to a reduction in the emitted luminescence.
The cells are seeded in 384-well plates (5000 cells in 45 μL/well of culture medium containing 10% fetal calf serum) and incubated for 4 hours at 37° C., 5% CO2. 5 μL of the test molecules (compounds described in the tables described above) are then added to each well and the plates are incubated for 18 hours at a temperature of 37° C. under 5% of CO2. 20 μL of luciferase substrate (Promega) are added to each well and the luminescence emitted is read by a microplate reader.
The luminescence units (“RLU”) are normalized by positive controls (“POS” containing a saturated concentration of N-(2,2,2-trifluoroethyl)-N-[4-[2,2,2-trifluoro-1-hydroxy-1-(trifluoromethyl)ethyl]phenyl])benzenesulfonamide and negative controls (“NEG” containing DMSO): % inhibition=((RLU−NEG)*100)/(POS−NEG). The IC50 values are calculated from a 4-parameter logistic model using the XLFit software (IDBS).

IC50 | SMILES
0.1 to 1 µM | CCc1ccc(N(C(CC)CC)S(=O)(=O)c2ccc3c(cnn3CC3CCOCC3)c2)cc1 [Compound 1, 1-(tetrahydropyran-4-ylmethyl)-1H-indazole-5-sulfonic acid (4-ethylphenyl)(1-ethylpropyl)amide]
0.1 to 1 µM | CCc1ccc(N(CC(C)C)S(=O)(=O)c2ccc3c(cnn3Cc3ccncc3)c2)cc1 [Compound 36, N-(4-ethylphenyl)-N-isobutyl-1-(pyridin-4-ylmethyl)-1H-indazole-5-sulfonamide]
> 1 µM | CCc1ccc(N(CC(C)C)S(=O)(=O)c2ccc3c(cnn3C3CCN(C(C)=O)C3)c2)cc1 (stereo not drawn) [Compound 40, 1-(1-acetylpyrrolidin-3-yl)-1H-indazole-5-sulfonic acid (4-ethylphenyl)isobutylamide]
> 1 µM | CCc1ccc(N(C2CCC2)S(=O)(=O)c2ccc3c(cnn3CC3CCOCC3)c2)cc1 [Compound 41, 1-(tetrahydropyran-4-ylmethyl)-1H-indazole-5-sulfonic acid cyclobutyl(4-ethylphenyl)amide]
0.1 to 1 µM | Cc1c(F)cccc1N(CC(C)C)S(=O)(=O)c1ccc2c(cnn2CC2CCOCC2)c1 [Compound 43, 1-(tetrahydropyran-4-ylmethyl)-2H-indazole-5-sulfonic acid (3-fluoro-2-methylphenyl)isobutylamide]
> 1 µM | CC(C)CN(c1cccc(Cl)c1)S(=O)(=O)c1ccc2c(cnn2CC2CCOCC2)c1 [Compound 44, 1-(tetrahydropyran-4-ylmethyl)-1H-indazole-5-sulfonic acid (5-chlorophenyl)isobutylamide]
> 1 µM | CC(C)CN(c1ccccc1Cl)S(=O)(=O)c1ccc2c(cnn2CC2CCOCC2)c1 [Compound 45, 1-(tetrahydropyran-4-ylmethyl)-1H-indazole-5-sulfonic acid (2-chlorophenyl)isobutylamide]
> 1 µM | CC(C)CN(c1ccc(F)cc1)S(=O)(=O)c1ccc2c(cnn2CC2CCOCC2)c1 [Compound 46, 1-(tetrahydropyran-4-ylmethyl)-1H-indazole-5-sulfonic acid (4-fluorophenyl)isobutylamide]
> 1 µM | Cc1ccc(N(CC(C)C)S(=O)(=O)c2ccc3c(cnn3CC3CCOCC3)c2)cc1 [Compound 47, 1-(tetrahydropyran-4-ylmethyl)-1H-indazole-5-sulfonic acid isobutyl-p-tolylamide]
> 1 µM | Cc1ccccc1N(CC(C)C)S(=O)(=O)c1ccc2c(cnn2CC2CCOCC2)c1 [Compound 48, 1-(tetrahydropyran-4-ylmethyl)-1H-indazole-5-sulfonic acid isobutyl-o-tolylamide]
> 1 µM | CC(C)CN(c1ccc(OC(F)(F)F)cc1)S(=O)(=O)c1ccc2c(cnn2CC2CCOCC2)c1 [Compound 49, 1-(tetrahydropyran-4-ylmethyl)-1H-indazole-5-sulfonic acid (4-trifluoromethoxyphenyl)isobutylamide]
> 1 µM | CC(C)CN(c1ccc(C(C)C)cn1)S(=O)(=O)c1ccc2c(cnn2CC2CCOCC2)c1 [Compound 50, 1-(tetrahydropyran-4-ylmethyl)-1H-indazole-5-sulfonic acid isobutyl(5-isopropylpyridin-2-yl)amide]
> 1 µM | CC(C)CN(Cc1cccc(Cl)c1)S(=O)(=O)c1ccc2c(cnn2CC2CCOCC2)c1 [Compound 51, 1-(tetrahydropyran-4-ylmethyl)-1H-indazole-5-sulfonic acid (3-chlorobenzyl)isobutylamide]
0.1 to 1 µM | CC(C)CN(Cc1ccccc1C(F)(F)F)S(=O)(=O)c1ccc2c(cnn2CC2CCOCC2)c1 [Compound 52, 1-(tetrahydropyran-4-ylmethyl)-1H-indazole-5-sulfonic acid isobutyl(2-trifluoromethylbenzyl)amide]
> 1 µM | Cc1cccc(F)c1N(CC(C)C)S(=O)(=O)c1ccc2c(cnn2CC2CCOCC2)c1 [Compound 53, 1-(tetrahydropyran-4-ylmethyl)-1H-indazole-5-sulfonic acid (2-fluoro-6-methylphenyl)isobutylamide]
0.1 to 1 µM | Cc1cc(F)ccc1N(CC(C)C)S(=O)(=O)c1ccc2c(cnn2CC2CCOCC2)c1 [Compound 54, 1-(tetrahydropyran-4-ylmethyl)-1H-indazole-5-sulfonic acid (4-fluoro-2-methylphenyl)isobutylamide]
0.1 to 1 µM | COc1ccc(N(CC(C)C)S(=O)(=O)c2ccc3c(cnn3CC3CCOCC3)c2)c(C)c1 [Compound 55, 1-(tetrahydropyran-4-ylmethyl)-1H-indazole-5-sulfonic acid isobutyl(4-methoxy-2-methylphenyl)amide]
0.1 to 1 µM | Cc1cc(C#N)ccc1N(CC(C)C)S(=O)(=O)c1ccc2c(cnn2CC2CCOCC2)c1 [Compound 57, 1-(tetrahydropyran-4-ylmethyl)-1H-indazole-5-sulfonic acid (4-cyano-2-methylphenyl)isobutylamide]
0.1 to 1 µM | CC(C)CN(c1ccccc1C(F)(F)F)S(=O)(=O)c1ccc2c(cnn2CC2CCOCC2)c1 [Compound 58, 1-(tetrahydropyran-4-ylmethyl)-1H-indazole-5-sulfonic acid isobutyl(2-trifluoromethylphenyl)amide]
> 1 µM | CC(C)CN(c1ccc(C(F)(F)F)cc1)S(=O)(=O)c1ccc2c(cnn2CC2CCOCC2)c1 [Compound 59, 1-(tetrahydropyran-4-ylmethyl)-1H-indazole-5-sulfonic acid isobutyl(4-trifluoromethylphenyl)amide]
> 1 µM | CCc1ccc(N(CC(CO)CCl)S(=O)(=O)c2ccc3c(cnn3CC3CCOCC3)c2)cc1 (stereo not drawn) [Compound 60, 1-(tetrahydropyran-4-ylmethyl)-1H-indazole-5-sulfonic acid (3-chloro-2-hydroxymethylpropyl)(4-ethylphenyl)amide]
> 1 µM | CCc1ccc(N(CC(C)C)S(=O)(=O)c2ccc3[nH]nc(OCC4CCOCC4)c3c2)cc1 [Compound 61, 3-(tetrahydropyran-4-ylmethoxy)-1H-indazole-5-sulfonic acid (4-ethylphenyl)isobutylamide]
< 0.1 µM | CCc1ccc(N(CC(C)C)S(=O)(=O)c2ccc3c(C=C4CCOCC4)n[nH]c3c2)cc1 [Compound 62, 3-(tetrahydropyran-4-ylidenemethyl)-1H-indazole-6-sulfonic acid (4-ethylphenyl)isobutylamide]
> 1 µM | CCc1ccc(N(CC(C)C)S(=O)(=O)c2ccc3c(CN4C[C@@H](C)O[C@@H](C)C4)n[nH]c3c2)cc1 [Compound 65, 3-((cis)-2,6-dimethylmorpholin-4-ylmethyl)-1H-indazole-6-sulfonic acid (4-ethylphenyl)isobutylamide]
0.1 to 1 µM | CCc1ccc(N(CC(C)C)S(=O)(=O)c2ccc3c(CN4CCOC[C@@H]4C)n[nH]c3c2)cc1 [Compound 66, 3-((S)-3-methylmorpholin-4-ylmethyl)-1H-indazole-6-sulfonic acid (4-ethylphenyl)isobutylamide]
0.1 to 1 µM | Cc1ccc(N(CC(C)C)S(=O)(=O)c2ccc3c(cnn3CC3CCOCC3)c2)c(C#N)c1 [Compound 70, 1-(tetrahydropyran-4-ylmethyl)-1H-indazole-5-sulfonic acid (2-cyano-4-methylphenyl)isobutylamide]
> 1 µM | CCc1ccc(N(CC(C)C)S(=O)(=O)c2cc(C(=O)OC)c3c(cnn3CC3CCOCC3)c2)cc1 [Compound 74, methyl 5-[(4-ethylphenyl)isobutylsulfamoyl]-1-(tetrahydropyran-4-ylmethyl)-1H-indazole-7-carboxylate]

SMILES | IC50
Cc1ccc(F)cc1N(CC(C)C)S(=O)(=O)c1ccc2c(cnn2CC2CCOCC2)c1 [Compound 42, 1-(tetrahydropyran-4-ylmethyl)-1H-indazole-5-sulfonic acid (5-fluoro-2-methylphenyl)isobutylamide] | 0.1 to 1 µM

Tested on: IL-17A secretion by CD4+ cells
Experiment: IL-17A secretion by activated CD4+ cells (HTRF)
Format: cell-based
Details: 96 h; human CD4+ cells activated with anti-CD3 and anti-CD28, 4 days of incubation, inhibitors 1000 nM to 0.05 nM; read-out: IC50 hCD4/IL17
Protocol: as §1
This model allows measurement of the effect of inhibitors on IL-17A secretion by CD4+ cells. The cells are frozen CD4+ cells (STEMCELL, #70026), isolated from peripheral human blood and activated with anti-CD3 and anti-CD28 antibodies. The amount of IL-17a secreted is measured by the TR-FRET (kit HTRF® Human Interleukin 17A (Cisbio, #64H17PEC)) technology.
The cells are rapidly thawed, resuspended in their culture medium (RPMI inactivated 10% FCS) supplemented with soluble anti-CD28 antibodies and seeded (100 000 cells/well) in 96-well plates precoated with anti-CD3 antibodies. The cells are then treated with the ranges of inhibitors to be tested (from 1000 nM to 0.05 nM, 0.1% DMSO). After 4 days of incubation, the HTRF signal is measured using a microplate reader (λexcitation=337 nm, λemission=620/665 nm). The ratios obtained (665/620) are normalized relative to the positive control (cells activated with anti-CD3 and anti-CD28, 0.1% DMSO). The IC50 values are calculated from a 4-parameter logistic model using the XLFit software (IDBS).

IC50 | SMILES
0.1 to 1 µM | CCc1ccc(N(C(CC)CC)S(=O)(=O)c2ccc3c(cnn3CC3CCOCC3)c2)cc1 [Compound 1, 1-(tetrahydropyran-4-ylmethyl)-1H-indazole-5-sulfonic acid (4-ethylphenyl)(1-ethylpropyl)amide]
< 0.1 µM | CCc1ccc(N(CC(C)C)S(=O)(=O)c2ccc3c(cnn3Cc3ccncc3)c2)cc1 [Compound 36, N-(4-ethylphenyl)-N-isobutyl-1-(pyridin-4-ylmethyl)-1H-indazole-5-sulfonamide]

From patent US10752617B2 (GALDERMA RESEARCH & DEVELOPMENT, priority 2014, dated 2020)
